# In paper PMC11413964, “Discovery of 1,3-disubstituted prop-2-en-1-one derivatives as inhibitors of neutrophilic inflammation via modulation of MAPK and Akt pathways” (Journal of Enzyme Inhibition and Medicinal Chemistry, 2024):
# System: fMLF/cytochalasin B (CB)-activated human neutrophils
# Assay: Elastase release in fMLF/CB-activated human neutrophils
# Type: cell-based
# Settings: 10 μM compound; cytochalasin B only
row,SMILES,Induction of elastase release
1,"CC(C)(C)C(=O)/C=C/c1ccc(-c2ccccc2)cc1 [Compound 29, (E)-1-([1,1′-Biphenyl]-4-yl)-4,4-dimethylpent-1-en-3-one]",induced elastase release
2,"CC(C)(C)C(=O)/C=C/c1ccc2ccccc2c1 [Compound 26, (E)-4,4-Dimethyl-1-(naphthalen-2-yl)pent-1-en-3-one]",induced elastase release
3,"CC(C)(C)C(=O)/C=C/c1ccc([N+](=O)[O-])cc1 [Compound 6, (E)-4,4-Dimethyl-1-(4-nitrophenyl)pent-1-en-3-one]",induced elastase release
4,"CC(C)(C)C(=O)/C=C/c1ccc(Cl)cc1Cl [Compound 15, (E)-1-(2,4-Dichlorophenyl)-4,4-dimethylpent-1-en-3-one]",induced elastase release
5,"CC(C)(C)Oc1ccc(/C=C/C(=O)c2ccc[nH]2)cc1 [Compound 13, (E)-3-(4-(tert-Butoxy)phenyl)-1-(1H-pyrrol-2-yl)prop-2-en-1-one]",induced elastase release

# System: JNK
# Assay: Immunoblotting of JNK phosphorylation in fMLF-activated neutrophils
# Type: cell-based, human
# Settings: 10 μM for 5 min, then fMLF 0.1 μM for 30 s
# Method: (§1) Human neutrophils (2.5 × 10^7 cells/mL) were first subjected to DMSO (0.1%, serving as control) or experimental compounds at 37 °C for 5 min. Following this, cells were stimulated with fMLF (0.1 μM) for 30 s. […] Primary antibodies used included those for p38 (1:8000), phospho-p38 (1:3000), JNK (1:3000), phospho-JNK (1:3000), Akt (1:5000), phospho-Akt (Ser-473) (1:2000), ERK (1:8000), phospho-ERK (1:8000), and HRP-linked anti-rabbit IgG, to measure total and phosphorylated forms of MAPK and Akt proteins. The quantitative measurements for all samples were adjusted to correspond with the levels of the total protein present.
row,SMILES,Effect on JNK phosphorylation
1,"COc1ccc(C(=O)/C=C/c2cc(F)cc(F)c2)cc1OC [Compound 26a, (E)-3-(3,5-Difluorophenyl)-1-(3,4-dimethoxyphenyl)prop-2-en-1-one]",markedly diminished phosphorylation

# System: p38 MAPK
# Assay: Immunoblotting of p38 MAPK phosphorylation in fMLF-activated neutrophils
# Type: cell-based, human
# Settings: 10 μM for 5 min, then fMLF 0.1 μM for 30 s
# Method: as §1
row,SMILES,Effect on p38 phosphorylation
1,"COc1ccc(C(=O)/C=C/c2cc(F)cc(F)c2)cc1OC [Compound 26a, (E)-3-(3,5-Difluorophenyl)-1-(3,4-dimethoxyphenyl)prop-2-en-1-one]",markedly diminished phosphorylation

# System: not given
# Assay: not given
# Settings: not given
row,melting point [°C],SMILES
1,128 to 130,"CC(C)(C)C(=O)/C=C/c1ccc(-c2ccccc2)cc1 [Compound 29, (E)-1-([1,1′-Biphenyl]-4-yl)-4,4-dimethylpent-1-en-3-one]"
2,117 to 119,"CC(C)(C)C(=O)/C=C/c1ccc2ccccc2c1 [Compound 26, (E)-4,4-Dimethyl-1-(naphthalen-2-yl)pent-1-en-3-one]"
3,125 to 126,"CC(C)(C)C(=O)/C=C/c1ccc([N+](=O)[O-])cc1 [Compound 6, (E)-4,4-Dimethyl-1-(4-nitrophenyl)pent-1-en-3-one]"
4,154.3 to 155,"COc1ccc(C(=O)/C=C/c2cc(F)cc(F)c2)cc1 [Compound 25a, (E)-3-(3,5-Difluorophenyl)-1-(4-methoxyphenyl)prop-2-en-1-one]"
5,132 to 134,"O=C(/C=C/c1ccc([N+](=O)[O-])cc1)C1CCCCC1 [Compound 3a, (E)-1-Cyclohexyl-3-(4-nitrophenyl)prop-2-en-1-one]"
6,128 to 129,"COc1ccc(/C=C/C(=O)C(C)(C)C)c(F)c1F [Compound 22, (E)-1-(2,3-Difluoro-4-methoxyphenyl)-4,4-dimethylpent-1-en-3-one]"
7,116.5 to 118,"COc1ccccc1C(=O)/C=C/c1ccc([N+](=O)[O-])cc1 [Compound 5a, (E)-1-(2-Methoxyphenyl)-3-(4-nitrophenyl)prop-2-en-1-one]"
8,103 to 104,"CC(C)(C)C(=O)/C=C/c1ccc(Cl)cc1Cl [Compound 15, (E)-1-(2,4-Dichlorophenyl)-4,4-dimethylpent-1-en-3-one]"
9,98.5 to 99.2,"CC(C)(C)C(=O)/C=C/c1ccc(Cl)c(F)c1 [Compound 17, (E)-1-(4-Chloro-3-fluorophenyl)-4,4-dimethylpent-1-en-3-one]"
10,79 to 80,"Cc1ccc(/C=C/C(=O)C(C)(C)C)cc1 [Compound 10, (E)-4,4-Dimethyl-1-(p-tolyl)pent-1-en-3-one]"
11,131 to 132,"COc1cc(F)c(/C=C/C(=O)C(C)(C)C)cc1F [Compound 23, (E)-1-(2,5-Difluoro-4-methoxyphenyl)-4,4-dimethylpent-1-en-3-one]"
12,132.8 to 134.8,"COc1ccc(C(=O)/C=C/c2cc(F)cc(F)c2)cc1OC [Compound 26a, (E)-3-(3,5-Difluorophenyl)-1-(3,4-dimethoxyphenyl)prop-2-en-1-one]"
13,96 to 98,"COc1ccccc1C(=O)/C=C/c1cccc(Cl)c1 [Compound 21a, (E)-3-(3-Chlorophenyl)-1-(2-methoxyphenyl)prop-2-en-1-one]"

row,SMILES,melting point [°C]
1,"CC(C)(C)Oc1ccc(/C=C/C(=O)c2ccc[nH]2)cc1 [Compound 13, (E)-3-(4-(tert-Butoxy)phenyl)-1-(1H-pyrrol-2-yl)prop-2-en-1-one]",116.5 to 118.5

# System: fMLF/cytochalasin B (CB)-activated human neutrophils
# Assay: Elastase release in fMLF/CB-activated human neutrophils
# Type: cell-based
# Settings: Homo sapiens, Neutrophil; 10 μM compound; fMLF/CB stimulation; mean ± SEM (n = 3–5)
# Method: (§2) The study involving neutrophils was approved by the Institutional Review Board of Chang Gung Memorial Hospital under IRB number: 201902217A3 and was conducted in accordance with the principles of the Declaration of Helsinki. Healthy volunteers aged 20–35 years provided signed informed consents for blood collection. Isolation of neutrophils was done using dextran sedimentation, Ficoll-Hypaque density gradient centrifugation, and hypotonic haemolysis. For the anti-inflammatory studies, neutrophils were suspended in Hank’s balanced salt solution (HBSS) containing 1 mM Ca^2+ at a pH of 7.4[72].
# Neutrophils were subsequently stimulated with fMLF (0.1 μM) and CB (0.5 μg/mL) for 13 min. […] LY294002 was used as a positive control.
row,SMILES,inhibition at 10 µM [%]
1,"COc1ccc(C(=O)/C=C/c2cc(F)cc(F)c2)cc1 [Compound 25a, (E)-3-(3,5-Difluorophenyl)-1-(4-methoxyphenyl)prop-2-en-1-one]",20.9 ± 3.64
2,"O=C(/C=C/c1ccc([N+](=O)[O-])cc1)C1CCCCC1 [Compound 3a, (E)-1-Cyclohexyl-3-(4-nitrophenyl)prop-2-en-1-one]",11.9 ± 4.68
3,"COc1ccc(/C=C/C(=O)C(C)(C)C)c(F)c1F [Compound 22, (E)-1-(2,3-Difluoro-4-methoxyphenyl)-4,4-dimethylpent-1-en-3-one]",4.84 ± 2.66
4,"COc1ccccc1C(=O)/C=C/c1ccc([N+](=O)[O-])cc1 [Compound 5a, (E)-1-(2-Methoxyphenyl)-3-(4-nitrophenyl)prop-2-en-1-one]",75.6 ± 5.02
5,"CC(C)(C)C(=O)/C=C/c1ccc(Cl)c(F)c1 [Compound 17, (E)-1-(4-Chloro-3-fluorophenyl)-4,4-dimethylpent-1-en-3-one]",9.13 ± 1.78
6,"Cc1ccc(/C=C/C(=O)C(C)(C)C)cc1 [Compound 10, (E)-4,4-Dimethyl-1-(p-tolyl)pent-1-en-3-one]",3.91 ± 2.82
7,"COc1cc(F)c(/C=C/C(=O)C(C)(C)C)cc1F [Compound 23, (E)-1-(2,5-Difluoro-4-methoxyphenyl)-4,4-dimethylpent-1-en-3-one]",2.5 ± 1.53
8,"COc1ccc(C(=O)/C=C/c2cc(F)cc(F)c2)cc1OC [Compound 26a, (E)-3-(3,5-Difluorophenyl)-1-(3,4-dimethoxyphenyl)prop-2-en-1-one]",20.2 ± 3.19
9,"COc1ccccc1C(=O)/C=C/c1cccc(Cl)c1 [Compound 21a, (E)-3-(3-Chlorophenyl)-1-(2-methoxyphenyl)prop-2-en-1-one]",80.4 ± 4.44

# Same assay, conditions: Homo sapiens, Neutrophil; fMLF/CB stimulation; mean ± SEM (n = 3–5)
row,IC50 [µM],SMILES
1,6.25 ± 0.52,"COc1ccccc1C(=O)/C=C/c1ccc([N+](=O)[O-])cc1 [Compound 5a, (E)-1-(2-Methoxyphenyl)-3-(4-nitrophenyl)prop-2-en-1-one]"
2,5.63 ± 0.51,"COc1ccccc1C(=O)/C=C/c1cccc(Cl)c1 [Compound 21a, (E)-3-(3-Chlorophenyl)-1-(2-methoxyphenyl)prop-2-en-1-one]"

# System: fMLF/cytochalasin B (CB)-activated human neutrophils
# Assay: Superoxide anion generation (ferricytochrome c reduction) in fMLF/CB-activated human neutrophils
# Type: cell-based
# Settings: Neutrophil, 10 μM compound, fMLF/CB stimulation, mean ± SEM (n = 3–5)
# Method: as §2
# The reduction of ferricytochrome c was utilised to measure the production of SO anions in activated human neutrophils. […] The neutrophils were then stimulated with fMLF (0.1 μM) and CB (1 μg/mL) for 13 min. […] LY294002 was used as a positive control.
row,SMILES,inhibition at 10 µM [%]
1,"CC(C)(C)C(=O)/C=C/c1ccc(-c2ccccc2)cc1 [Compound 29, (E)-1-([1,1′-Biphenyl]-4-yl)-4,4-dimethylpent-1-en-3-one]",2.23 ± 0.94
2,"CC(C)(C)C(=O)/C=C/c1ccc2ccccc2c1 [Compound 26, (E)-4,4-Dimethyl-1-(naphthalen-2-yl)pent-1-en-3-one]",10.6 ± 3.34
3,"CC(C)(C)C(=O)/C=C/c1ccc([N+](=O)[O-])cc1 [Compound 6, (E)-4,4-Dimethyl-1-(4-nitrophenyl)pent-1-en-3-one]",23.3 ± 2.3
4,"COc1ccc(C(=O)/C=C/c2cc(F)cc(F)c2)cc1 [Compound 25a, (E)-3-(3,5-Difluorophenyl)-1-(4-methoxyphenyl)prop-2-en-1-one]",78.2 ± 9.5
5,"O=C(/C=C/c1ccc([N+](=O)[O-])cc1)C1CCCCC1 [Compound 3a, (E)-1-Cyclohexyl-3-(4-nitrophenyl)prop-2-en-1-one]",11.4 ± 1.6
6,"COc1ccc(/C=C/C(=O)C(C)(C)C)c(F)c1F [Compound 22, (E)-1-(2,3-Difluoro-4-methoxyphenyl)-4,4-dimethylpent-1-en-3-one]",31.4 ± 3.36
7,"COc1ccccc1C(=O)/C=C/c1ccc([N+](=O)[O-])cc1 [Compound 5a, (E)-1-(2-Methoxyphenyl)-3-(4-nitrophenyl)prop-2-en-1-one]",102 ± 1.92
8,"CC(C)(C)C(=O)/C=C/c1ccc(Cl)cc1Cl [Compound 15, (E)-1-(2,4-Dichlorophenyl)-4,4-dimethylpent-1-en-3-one]",43 ± 2.78
9,"CC(C)(C)C(=O)/C=C/c1ccc(Cl)c(F)c1 [Compound 17, (E)-1-(4-Chloro-3-fluorophenyl)-4,4-dimethylpent-1-en-3-one]",40.6 ± 3.89
10,"Cc1ccc(/C=C/C(=O)C(C)(C)C)cc1 [Compound 10, (E)-4,4-Dimethyl-1-(p-tolyl)pent-1-en-3-one]",8.56 ± 3.04
11,"COc1cc(F)c(/C=C/C(=O)C(C)(C)C)cc1F [Compound 23, (E)-1-(2,5-Difluoro-4-methoxyphenyl)-4,4-dimethylpent-1-en-3-one]",8.1 ± 1.88
12,"COc1ccc(C(=O)/C=C/c2cc(F)cc(F)c2)cc1OC [Compound 26a, (E)-3-(3,5-Difluorophenyl)-1-(3,4-dimethoxyphenyl)prop-2-en-1-one]",92.4 ± 2.19
13,"COc1ccccc1C(=O)/C=C/c1cccc(Cl)c1 [Compound 21a, (E)-3-(3-Chlorophenyl)-1-(2-methoxyphenyl)prop-2-en-1-one]",89.9 ± 2.38

# Same assay, conditions: Neutrophil, fMLF/CB stimulation, mean ± SEM (n = 3–5)
row,IC50 [µM],SMILES
1,4.7 ± 0.6,"COc1ccc(C(=O)/C=C/c2cc(F)cc(F)c2)cc1 [Compound 25a, (E)-3-(3,5-Difluorophenyl)-1-(4-methoxyphenyl)prop-2-en-1-one]"
2,3.77 ± 0.33,"COc1ccccc1C(=O)/C=C/c1ccc([N+](=O)[O-])cc1 [Compound 5a, (E)-1-(2-Methoxyphenyl)-3-(4-nitrophenyl)prop-2-en-1-one]"
3,1.56 ± 0.27,"COc1ccc(C(=O)/C=C/c2cc(F)cc(F)c2)cc1OC [Compound 26a, (E)-3-(3,5-Difluorophenyl)-1-(3,4-dimethoxyphenyl)prop-2-en-1-one]"
4,3.79 ± 0.69,"COc1ccccc1C(=O)/C=C/c1cccc(Cl)c1 [Compound 21a, (E)-3-(3-Chlorophenyl)-1-(2-methoxyphenyl)prop-2-en-1-one]"

# System: fMLF/cytochalasin B (CB)-activated human neutrophils
# Assay: as above
# Type: cell-based
# Settings: 10 μM compound; cytochalasin B only
row,SMILES,Induction of superoxide anion production
1,"CC(C)(C)Oc1ccc(/C=C/C(=O)c2ccc[nH]2)cc1 [Compound 13, (E)-3-(4-(tert-Butoxy)phenyl)-1-(1H-pyrrol-2-yl)prop-2-en-1-one]",induced also SO anion generation

# System: Akt
# Assay: Immunoblotting of Akt phosphorylation in fMLF-activated neutrophils
# Type: cell-based, human
# Settings: 10 μM for 5 min, then fMLF 0.1 μM for 30 s
# Method: as §1
row,SMILES,Effect on Akt phosphorylation
1,"COc1ccc(C(=O)/C=C/c2cc(F)cc(F)c2)cc1OC [Compound 26a, (E)-3-(3,5-Difluorophenyl)-1-(3,4-dimethoxyphenyl)prop-2-en-1-one]",did not affect

# System: ERK
# Assay: Immunoblotting of ERK phosphorylation in fMLF-activated neutrophils
# Type: cell-based, human
# Settings: 10 μM for 5 min, then fMLF 0.1 μM for 30 s
# Method: as §1
row,SMILES,Effect on ERK phosphorylation
1,"COc1ccc(C(=O)/C=C/c2cc(F)cc(F)c2)cc1OC [Compound 26a, (E)-3-(3,5-Difluorophenyl)-1-(3,4-dimethoxyphenyl)prop-2-en-1-one]",markedly diminished phosphorylation
